Activity calls are given as the source filed them. The rule behind the calls is not given here.
Columns and labels:
Schistosoma mansoni [1] = experiment: Antischistosomal activity against Schistosoma mansoni couples assessed as couple separation at 100 uM measured upto 72 hrs by bright field microscopy; assay type: functional, organism-based
Schistosoma mansoni [2] = experiment: Antischistosomal activity against Schistosoma mansoni male worm assessed as tegument damage at 100 uM measured upto 72 hrs by bright field microscopy; assay type: functional, organism-based
HepG2 [3] = experiment: Cytotoxicity against human HepG2 cells assessed as reduction in cell vaibility at 100 uM by WST-1 assay; assay type: toxicity, cell-based; settings: hepg2, 100 µM
Schistosoma mansoni [4] = experiment: Antischistosomal activity against Schistosoma mansoni female worm assessed as tegument damage at 100 uM measured upto 72 hrs by bright field microscopy; assay type: functional, organism-based
Schistosoma mansoni [5] = experiment: Antischistosomal activity against Schistosoma mansoni female worm assessed as gut dilatations at 100 uM measured upto 72 hrs by bright field microscopy; assay type: functional, organism-based
Schistosoma mansoni [6] = experiment: Antischistosomal activity against Schistosoma mansoni couples assessed as inhibition of eggs production at <=25 uM measured upto 72 hrs by bright field microscopy; assay type: functional, organism-based
Schistosoma mansoni [7] = experiment: Antischistosomal activity against Schistosoma mansoni couples assessed as decrease in parasite motility at 25 uM measured upto 72 hrs by bright field microscopy; assay type: functional; set-up: scale not given: the % may be the effect or the level left
Schistosoma mansoni [8] = experiment: Antischistosomal activity against Schistosoma mansoni couples assessed as decrease in parasite vitality at <=25 uM measured upto 72 hrs by bright field microscopy; assay type: functional, organism-based
LS174T [9] = experiment: Cytotoxicity against human LS174T cells assessed as reduction in cell viability at 100 uM by WST-1 assay; assay type: toxicity, cell-based
Schistosoma mansoni [10] = experiment: Antischistosomal activity against Schistosoma mansoni couples assessed as lethality to parasites at 50 uM measured upto 72 hrs by bright field microscopy; assay type: functional, organism-based
Schistosoma mansoni [11] = experiment: Antischistosomal activity against Schistosoma mansoni female worm assessed as gut dilatations at 10 uM measured upto 72 hrs by bright field microscopy; assay type: functional, organism-based
HepG2 [12] = experiment: Cytotoxicity against human HepG2 cells assessed as reduction in cell vaibility at 25 uM by WST-1 assay; assay type: toxicity, cell-based; settings: hepg2, 25 µM
Schistosoma mansoni [13] = experiment: Antischistosomal activity against Schistosoma mansoni couples assessed as reduction in pairing stability at 10 uM measured upto 72 hrs by bright field microscopy; assay type: functional, organism-based
Schistosoma mansoni [14] = experiment: Antischistosomal activity against Schistosoma mansoni couples assessed as decrease in parasite vitality at 10 uM measured upto 72 hrs by bright field microscopy; assay type: functional
Schistosoma mansoni [15] = experiment: Antischistosomal activity against Schistosoma mansoni couples assessed as dead worms at 25 uM measured upto 72 hrs by bright field microscopy; assay type: functional
Schistosoma mansoni [16] = experiment: Antischistosomal activity against Schistosoma mansoni couples assessed as decrease in parasite motility at 10 uM measured upto 72 hrs by bright field microscopy; assay type: functional, organism-based
Schistosoma mansoni [17] = experiment: Antischistosomal activity against Schistosoma mansoni couples assessed as inhibition of eggs production at 10 uM measured upto 72 hrs by bright field microscopy; assay type: functional, organism-based
Schistosoma mansoni [18] = experiment: Antischistosomal activity against Schistosoma mansoni couples assessed as edematous swelling of gut at 25 uM measured upto 72 hrs by bright field microscopy; assay type: functional, organism-based
LS174T [19] = experiment: Cytotoxicity against human LS174T cells assessed as reduction in cell vaibility at 25 uM by WST-1 assay; assay type: toxicity, cell-based
Schistosoma mansoni [20] = experiment: Antischistosomal activity against Schistosoma mansoni couples at 100 uM measured upto 72 hrs by bright field microscopy; assay type: functional, organism-based
Schistosoma mansoni [21] = experiment: Antischistosomal activity against Schistosoma mansoni couples assessed as reduction in parasite motility at <=50 uM measured upto 72 hrs by bright field microscopy; assay type: functional, organism-based
Schistosoma mansoni [22] = experiment: Antischistosomal activity against Schistosoma mansoni couples assessed as eggs deformation at 100 uM measured upto 72 hrs by bright field microscopy; assay type: functional
Schistosoma mansoni [23] = experiment: Antischistosomal activity against Schistosoma mansoni couples assessed as tegument damage at <=50 uM measured upto 72 hrs by bright field microscopy; assay type: functional, organism-based
Schistosoma mansoni [24] = experiment: Antischistosomal activity against Schistosoma mansoni couples assessed as decrease in parasite motility at 100 uM measured upto 72 hrs by bright field microscopy; assay type: functional; set-up: scale not given: the % may be the effect or the level left
Schistosoma mansoni [25] = experiment: Antischistosomal activity against Schistosoma mansoni couples assessed as reduction in pairing stability at 100 uM measured upto 72 hrs by bright field microscopy; assay type: functional
Schistosoma mansoni [26] = experiment: Antischistosomal activity against Schistosoma mansoni couples assessed as tegument damage at 100 uM measured upto 72 hrs by bright field microscopy; assay type: functional, organism-based
Schistosoma mansoni [27] = experiment: Antischistosomal activity against Schistosoma mansoni couples at 50 uM measured upto 72 hrs by bright field microscopy; assay type: functional, organism-based
Schistosoma mansoni [28] = experiment: Antischistosomal activity against Schistosoma mansoni couples at 25 uM measured upto 72 hrs by bright field microscopy; assay type: functional, organism-based
HepG2 [29] = experiment: Cytotoxicity against human HepG2 cells assessed as reduction in cell viability upto 100 uM by WST-1 assay; assay type: toxicity, cell-based; settings: hepg2, 100 µM
LS174T [30] = experiment: Cytotoxicity against human LS174T cells assessed as reduction in cell vaibility upto 100 uM by WST-1 assay; assay type: toxicity, cell-based
Schistosoma mansoni [31] = experiment: Antischistosomal activity against Schistosoma mansoni couples assessed as couple separation at 10 uM measured upto 72 hrs by bright field microscopy; assay type: functional
Schistosoma mansoni [32] = experiment: Antischistosomal activity against Schistosoma mansoni couples assessed as decrease in pairing stability at 5 uM measured upto 72 hrs by bright field microscopy; assay type: functional; set-up: scale not given: the % may be the effect or the level left
Schistosoma mansoni [33] = experiment: Antischistosomal activity against Schistosoma mansoni couples assessed as inhibition of eggs production at 5 uM measured upto 72 hrs by bright field microscopy; assay type: functional; set-up: scale not given: the % may be the effect or the level left

| Compound | Activity (HepG2 [3]) | Activity (Schistosoma mansoni [7]) | Activity (LS174T [9]) | Activity (HepG2 [12]) | Activity (Schistosoma mansoni [13]) | Activity (Schistosoma mansoni [14]) | Activity (Schistosoma mansoni [15]) | Activity (Schistosoma mansoni [16]) | Activity (Schistosoma mansoni [17]) | Activity (Schistosoma mansoni [18]) | Activity (LS174T [19]) | Activity (Schistosoma mansoni [20]) | Activity (Schistosoma mansoni [24]) [%] | Activity (Schistosoma mansoni [26]) | further results |
| --- | --- | --- | --- | --- | --- | --- | --- | --- | --- | --- | --- | --- | --- | --- | --- |
| S=C(SCc1ccccc1)n1ccc2ccccc21 | Non-Toxic | >=55% | Non-Toxic | – | – | – | – | – | – | – | – | – | – | – | Activity (Schistosoma mansoni [1]): Active; Activity (Schistosoma mansoni [2]): Active; Activity (Schistosoma mansoni [4]): Active; Activity (Schistosoma mansoni [5]): Active; Activity (Schistosoma mansoni [6]): Active; Activity (Schistosoma mansoni [8]): Active; Activity (Schistosoma mansoni [10]): Active; Activity (Schistosoma mansoni [11]): inactive |
| C[C@H](N)C(=O)N1CCN(C(=S)SCc2ccc([N+](=O)[O-])cc2)CC1.Cl | Toxic | 65% | Toxic | Toxic | Active | Active | <=25% | inactive | Active | Active | Toxic | Active | – | – | – |
| CCCN(CCC)C(=S)SCc1ccccc1 | – | – | – | – | – | – | – | – | – | – | – | – | ~40 | Active | Activity (Schistosoma mansoni [21]): inactive; Activity (Schistosoma mansoni [22]): Active; Activity (Schistosoma mansoni [23]): inactive; Activity (Schistosoma mansoni [25]): Active |
| CCN(CC)C(=S)SCc1ccc(S(C)(=O)=O)cc1 | – | – | – | – | – | – | – | – | – | – | – | – | ~60 | Active | Activity (Schistosoma mansoni [27]): Active; Activity (Schistosoma mansoni [28]): inactive |
| CCN(CC)C(=S)SCC1CCCCC1 | – | 35% | – | – | – | 90% | – | – | – | – | – | – | – | – | Activity (HepG2 [29]): Non-Toxic; Activity (LS174T [30]): Non-Toxic; Activity (Schistosoma mansoni [31]): 60% |
| Cl.O=C([C@@H]1CCCN1)N1CCN(C(=S)SCc2ccc([N+](=O)[O-])cc2)CC1 | Toxic | 65% | Toxic | Toxic | Active | Active | <=25% | inactive | Active | Active | Toxic | Active | – | – | Activity (Schistosoma mansoni [32]): ~80%; Activity (Schistosoma mansoni [33]): ~80% |
